Test results from ChEMBL document CHEMBL3297740, “Thiazolidine-2,4-diones derivatives as PPAR-γ agonists: synthesis, molecular docking, in vitro and in vivo antidiabetic activity with hepatotoxicity risk evaluation and effect on PPAR-γ gene expression” (Bioorg Med Chem Lett, 2014).
Calls of active or inactive are those of the source. The calls are words filed in the database; no cut-off is given here.

The molecules below were run on Rattus norvegicus (assay: Antidiabetic activity in streptozotocin-induced Albino Wistar rat diabetic model assessed as improvement in body weight at 36 mg/kg, po measured after 15 days by glucose oxidase method). Details: not given.
Format: functional, organism-based
Design: dose 36 mg/kg
`O=C1NC(=O)C(Cc2coc3ccc(Cl)cc3c2=O)S1` (stereo unspecified) was tested, and the Activity was “Active”.

Species: Rattus norvegicus
Assay: Hepatotoxicity in streptozotocin-induced in Albino Wistar rat diabetic model assessed increase in portal triad Inflammation by Haematoxylin/Eosin staining-based microscopy
Format: toxicity, organism-based
Details: in vivo
`O=C1NC(=O)C(Cc2coc3ccc(Cl)cc3c2=O)S1` (stereo unspecified) was tested, and the Activity was “Non-toxic”.
For `O=C1NC(=O)C(Cc2coc3c(Cl)cc(Cl)cc3c2=O)S1` (stereo unspecified), the Activity was “Non-toxic”.
With `COc1ccc2occ(CC3SC(=O)NC3=O)c(=O)c2c1` (stereo unspecified) the Activity was “Non-toxic”.
For `CCc1ccc(CCOc2ccc(CC3SC(=O)NC3=O)cc2)nc1` (stereo unspecified) [PIOGLITAZONE], the Activity was “Non-toxic”.
In the case of `O=C1NC(=O)C(Cc2coc3ccc(Br)cc3c2=O)S1` (stereo unspecified), the Activity is reported as “Non-toxic”.
In the case of `O=C1NC(=O)C(Cc2coc3ccc(F)cc3c2=O)S1` (stereo unspecified), the Activity is reported as “Non-toxic”.

Species: Rattus norvegicus
Assay: Reduction in streptozotocin-induced aspartate aminotransferase level in Albino Wistar rat diabetic model
Format: functional, organism-based
Details: not given
With `O=C1NC(=O)C(Cc2coc3ccc(Cl)cc3c2=O)S1` (stereo unspecified) the Activity was “Active”.
With `O=C1NC(=O)C(Cc2coc3c(Cl)cc(Cl)cc3c2=O)S1` (stereo unspecified) the Activity was “Active”.
With `COc1ccc2occ(CC3SC(=O)NC3=O)c(=O)c2c1` (stereo unspecified) the Activity was “Active”.
For `O=C1NC(=O)C(Cc2coc3ccc(Br)cc3c2=O)S1` (stereo unspecified), the Activity was “Active”.
`O=C1NC(=O)C(Cc2coc3ccc(F)cc3c2=O)S1` (stereo unspecified) was tested, and the Activity was “Active”.

Species: Rattus norvegicus
Assay: Toxicity in Albino Wistar rat assessed as change in body weight relative to control
Format: organism-based
Details: in vivo
`O=C1NC(=O)C(Cc2coc3ccc(Cl)cc3c2=O)S1` (stereo unspecified) was tested, and the Activity was “Non-toxic”.

Species: Rattus norvegicus
Assay: Antidiabetic activity in Albino Wistar rat assessed as improvement in insulin resistance measured at 90 mins after insulin injection by insulin tolerance test
Format: functional, organism-based
Details: not given
With `O=C1NC(=O)C(Cc2coc3ccc(Cl)cc3c2=O)S1` (stereo unspecified) the Activity was “Active”.

Species: Rattus norvegicus
Assay: Toxicity in streptozotocin-induced in Albino Wistar rat diabetic model assessed as liver damage by Haematoxylin/Eosin staining-based microscopy
Format: organism-based
Details: in vivo
In the case of `O=C1NC(=O)C(Cc2coc3ccc(Cl)cc3c2=O)S1` (stereo unspecified), the Activity is reported as “Non-toxic”.
`O=C1NC(=O)C(Cc2coc3c(Cl)cc(Cl)cc3c2=O)S1` (stereo unspecified) was tested, and the Activity was “Toxic”.
`COc1ccc2occ(CC3SC(=O)NC3=O)c(=O)c2c1` (stereo unspecified) was tested, and the Activity was “Non-toxic”.
`O=C1NC(=O)C(Cc2coc3ccc(Br)cc3c2=O)S1` (stereo unspecified) was tested, and the Activity was “Toxic”.
`O=C1NC(=O)C(Cc2coc3ccc(F)cc3c2=O)S1` (stereo unspecified) was tested, and the Activity was “Toxic”.

Species: Rattus norvegicus
Assay: Hepatotoxicity in streptozotocin-induced in Albino Wistar rat diabetic model assessed increase in sinusoidal dilatation by Haematoxylin/Eosin staining-based microscopy
Format: toxicity, organism-based
Details: in vivo
For `O=C1NC(=O)C(Cc2coc3ccc(Cl)cc3c2=O)S1` (stereo unspecified), the Activity was “Non-toxic”.
With `O=C1NC(=O)C(Cc2coc3c(Cl)cc(Cl)cc3c2=O)S1` (stereo unspecified) the Activity was “Toxic”.
In the case of `COc1ccc2occ(CC3SC(=O)NC3=O)c(=O)c2c1` (stereo unspecified), the Activity is reported as “Non-toxic”.
In the case of `CCc1ccc(CCOc2ccc(CC3SC(=O)NC3=O)cc2)nc1` (stereo unspecified) [PIOGLITAZONE], the Activity is reported as “Toxic”.
`O=C1NC(=O)C(Cc2coc3ccc(Br)cc3c2=O)S1` (stereo unspecified) was tested, and the Activity was “Toxic”.
For `O=C1NC(=O)C(Cc2coc3ccc(F)cc3c2=O)S1` (stereo unspecified), the Activity was “Toxic”.

Species: Rattus norvegicus
Assay: Reduction in streptozotocin-induced alanine transaminase level in Albino Wistar rat diabetic model
Format: functional, organism-based
Details: not given
For `O=C1NC(=O)C(Cc2coc3ccc(Cl)cc3c2=O)S1` (stereo unspecified), the Activity was “Active”.
`O=C1NC(=O)C(Cc2coc3c(Cl)cc(Cl)cc3c2=O)S1` (stereo unspecified) was tested, and the Activity was “Active”.
For `COc1ccc2occ(CC3SC(=O)NC3=O)c(=O)c2c1` (stereo unspecified), the Activity was “Active”.
In the case of `O=C1NC(=O)C(Cc2coc3ccc(Br)cc3c2=O)S1` (stereo unspecified), the Activity is reported as “Active”.
For `O=C1NC(=O)C(Cc2coc3ccc(F)cc3c2=O)S1` (stereo unspecified), the Activity was “Active”.

Species: Rattus norvegicus
Assay: Antidiabetic activity in Albino Wistar rat assessed as reduction of blood glucose level measured at 120 mins after glucose injection by oral glucose tolerance test
Format: functional, organism-based
Details: not given
In the case of `O=C1NC(=O)C(Cc2coc3ccc(Cl)cc3c2=O)S1` (stereo unspecified), the inhibition is reported as “Active”.

Species: Rattus norvegicus
Assay: Reduction in streptozotocin-induced alkaline phosphatase level in Albino Wistar rat diabetic model
Format: functional, organism-based
Details: not given
For `O=C1NC(=O)C(Cc2coc3ccc(Cl)cc3c2=O)S1` (stereo unspecified), the Activity was “Active”.
For `O=C1NC(=O)C(Cc2coc3c(Cl)cc(Cl)cc3c2=O)S1` (stereo unspecified), the Activity was “Active”.
With `COc1ccc2occ(CC3SC(=O)NC3=O)c(=O)c2c1` (stereo unspecified) the Activity was “Active”.
With `O=C1NC(=O)C(Cc2coc3ccc(Br)cc3c2=O)S1` (stereo unspecified) the Activity was “Active”.
For `O=C1NC(=O)C(Cc2coc3ccc(F)cc3c2=O)S1` (stereo unspecified), the Activity was “Active”.

Each molecule was assayed on Rattus norvegicus (assay: Antidiabetic activity in streptozotocin-induced Albino Wistar rat diabetic model assessed as decrease in blood glucose level at 36 mg/kg, po measured after 15 days by glucose oxidase method). Details: not given.
Format: functional, organism-based
Design: dose 36 mg/kg
`O=C1NC(=O)C(Cc2coc3ccc(Cl)cc3c2=O)S1` (stereo unspecified) was tested, and the inhibition was “Active”.
With `O=C1NC(=O)C(CC2COc3c(Cl)cc(Cl)cc3C2=O)S1` (stereo unspecified) the inhibition was “Active”.
For `O=C1NC(=O)C(Cc2coc3ccccc3c2=O)S1` (stereo unspecified), the inhibition was “Active”.
`Cc1ccc2occ(CC3SC(=O)NC3=O)c(=O)c2c1` (stereo unspecified) was tested, and the inhibition was “Active”.
With `O=C1NC(=O)C(Cc2coc3c(Cl)cc(Cl)cc3c2=O)S1` (stereo unspecified) the inhibition was “Active”.
For `COc1ccc2occ(CC3SC(=O)NC3=O)c(=O)c2c1` (stereo unspecified), the inhibition was “Active”.
With `Cc1ccc2c(c1)C(=O)C(CC1SC(=O)NC1=O)CO2` (stereo unspecified) the inhibition was “Active”.
`O=C1NC(=O)C(CC2COc3ccc(F)cc3C2=O)S1` (stereo unspecified) was tested, and the inhibition was “Active”.
`COc1cccc2c1C(=O)C(CC1SC(=O)NC1=O)CO2` (stereo unspecified) was tested, and the inhibition was “Active”.
`O=C1NC(=O)C(Cc2coc3ccc(Br)cc3c2=O)S1` (stereo unspecified) was tested, and the inhibition was “Active”.
With `COc1ccc2c(c1)C(=O)C(CC1SC(=O)NC1=O)CO2` (stereo unspecified) the inhibition was “Active”.
For `O=C1NC(=O)C(CC2COc3ccc(Br)cc3C2=O)S1` (stereo unspecified), the inhibition was “Active”.
For `O=C1NC(=O)C(Cc2coc3ccc(F)cc3c2=O)S1` (stereo unspecified), the inhibition was “Active”.

Species: Rattus norvegicus
Assay: Hepatotoxicity in streptozotocin-induced in Albino Wistar rat diabetic model assessed as hepatocyte swelling by Haematoxylin/Eosin staining-based microscopy
Format: toxicity, organism-based
Details: hepatocytes
In the case of `O=C1NC(=O)C(Cc2coc3ccc(Cl)cc3c2=O)S1` (stereo unspecified), the Activity is reported as “Non-toxic”.
`O=C1NC(=O)C(Cc2coc3c(Cl)cc(Cl)cc3c2=O)S1` (stereo unspecified) was tested, and the Activity was “Non-toxic”.
With `COc1ccc2occ(CC3SC(=O)NC3=O)c(=O)c2c1` (stereo unspecified) the Activity was “Non-toxic”.
For `CCc1ccc(CCOc2ccc(CC3SC(=O)NC3=O)cc2)nc1` (stereo unspecified) [PIOGLITAZONE], the Activity was “Non-toxic”.
In the case of `O=C1NC(=O)C(Cc2coc3ccc(Br)cc3c2=O)S1` (stereo unspecified), the Activity is reported as “Non-toxic”.
With `O=C1NC(=O)C(Cc2coc3ccc(F)cc3c2=O)S1` (stereo unspecified) the Activity was “Non-toxic”.

Species: Rattus norvegicus
Assay: Hepatotoxicity in streptozotocin-induced in Albino Wistar rat diabetic model assessed as fatty changes in hepatocyte by Haematoxylin/Eosin staining-based microscopy
Format: toxicity, organism-based
Details: hepatocytes
`O=C1NC(=O)C(Cc2coc3ccc(Cl)cc3c2=O)S1` (stereo unspecified) was tested, and the Activity was “Non-toxic”.
For `O=C1NC(=O)C(Cc2coc3c(Cl)cc(Cl)cc3c2=O)S1` (stereo unspecified), the Activity was “Non-toxic”.
In the case of `COc1ccc2occ(CC3SC(=O)NC3=O)c(=O)c2c1` (stereo unspecified), the Activity is reported as “Non-toxic”.
`CCc1ccc(CCOc2ccc(CC3SC(=O)NC3=O)cc2)nc1` (stereo unspecified) [PIOGLITAZONE] was tested, and the Activity was “Non-toxic”.
With `O=C1NC(=O)C(Cc2coc3ccc(Br)cc3c2=O)S1` (stereo unspecified) the Activity was “Non-toxic”.
In the case of `O=C1NC(=O)C(Cc2coc3ccc(F)cc3c2=O)S1` (stereo unspecified), the Activity is reported as “Non-toxic”.
